Here are results for 22 compounds from patent US9512107B2, “Therapeutically active compositions and their methods of use” (Agios Pharmaceuticals, Inc., priority 2012, dated 2016).

Test [1] concerns U87MG pLVX-IDH2 R140Q-neo cells. The experiment in a line: U87MG pLVX-IDH2 R140Q-neo cell based assay, 2-HG in media by LC-MS at 48 hours. The following applies: Homo sapiens, U-87 MG. The gist of the method: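 2-HG secreted into the medium was measured by LC-MS after 48 h of compound treatment (0.2% DMSO final) of U87MG pLVX-IDH2 R140Q-neo cells in DMEM/10% FBS. The same wells were assayed at 72 h by CellTiter-Glo luminescence for effects on growth.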

For test [2], the target named is T1, IDH2 R140Q (Homo sapiens, UniProt P48735, R140Q).
T1 sequence (P48735 40-452 R140Q): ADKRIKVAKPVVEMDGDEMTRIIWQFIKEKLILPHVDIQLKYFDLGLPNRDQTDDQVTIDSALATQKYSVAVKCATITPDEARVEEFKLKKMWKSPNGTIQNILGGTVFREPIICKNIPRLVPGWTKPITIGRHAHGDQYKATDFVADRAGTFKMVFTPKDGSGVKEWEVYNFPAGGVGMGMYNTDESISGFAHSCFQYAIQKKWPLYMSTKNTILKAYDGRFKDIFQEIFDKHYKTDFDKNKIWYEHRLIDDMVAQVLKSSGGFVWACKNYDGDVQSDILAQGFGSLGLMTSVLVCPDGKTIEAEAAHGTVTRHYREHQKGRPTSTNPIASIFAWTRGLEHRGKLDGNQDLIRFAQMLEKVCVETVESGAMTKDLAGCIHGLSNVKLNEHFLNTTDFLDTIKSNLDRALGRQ
The experiment in a line: IDH2 R140Q enzymatic assay (cofactor depletion, similar format). Type of test: biochemical. The following applies: read-out: Enz R140Q.

Test [3] deals with T2, IDH2 R172K (Homo sapiens, UniProt P48735, R172K).
T2 sequence (P48735 40-452 R172K): T1 sequence (P48735 40-452 R140Q) with Q101R, R133K
The experiment in a line: IDH2 R172K enzymatic assay (NADPH cofactor depletion, diaphorase/resazurin readout). The test is classed as biochemical. The following applies: read-out: Enz R172K. On the procedure:
Compounds are assayed for IDH2 R172K inhibitory activity through a cofactor depletion assay. […] The reaction is terminated by the addition of a second enzyme, diaphorase, and a corresponding substrate, resazurin. Diaphorase reduces resazurin to the highly fluorescent resorufin with the concomitant oxidation of NADPH to NADP, both halting the IDH2 reaction by depleting the available cofactor pool and facilitating quantitation of the amount of cofactor remaining after a specific time period through quantitative production of an easily detected fluorophore.
The test compound is then incubated for one hour at room temperature with the enzyme; before starting the IDH2 reaction with the addition of 10 μl of substrate mix containing 50 μM NADPH and 6.3 mM α-KG in the buffer described above. After a further one hour of incubation at room temperature, the reaction is halted and the remaining NADPH measured through conversion of resazurin to resorufin by the addition of 25 μl Stop Mix (36 μg/ml diaphorase enzyme and 60 μM resazurin; in buffer).
(In general: Alamar Blue is a resazurin reagent that responds to reducing activity.)

Residue numbers refer to the chain shown, from its start. A value given as a limit tells only on which side of the number the result lay.

For the compound `FC(F)(F)c1cccc(-c2nc(Nc3cnoc3)nc(NC3COC3)n2)n1` [Compound 337, N^2-(isoxazol-4-yl)-N^4-(oxetan-3-yl)-6-(6-(trifluoromethyl)pyridin-2-yl)-1,3,5-triazine-2,4-diamine], the values for the IC50 in test [1], in test [2] and in test [3] were 100 to 1000 nM, 100 to 1000 nM and 1000 to 10000 nM, respectively.

`CC(C)Nc1nc(Nc2ccccc2)nc(-c2ccccn2)n1` [Compound 214, N-Isopropyl-N′-phenyl-6-pyridin-2-yl-[1,3,5]triazine-2,4-diamine]: the IC50 in test [1] is 100 to 1000 nM; in test [2] it was less than 100 nM; in test [3] it was 100 to 1000 nM.

Consider `Cc1cc(Nc2nc(NC(=O)C(C)(C)C)nc(-c3ccccc3)n2)ccn1` [Compound 350], for which the values for the IC50 in test [1], in test [2] and in test [3] were 100 to 1000 nM, 100 to 1000 nM and 1000 to 10000 nM, respectively.

For `CC(F)(F)c1cccc(-c2nc(NCC3CC3)nc(Nc3ccnc(C4(C#N)CC4)c3)n2)n1` [Compound 619, 1-(4-((4-((cyclopropylmethyl)amino)-6-(6-(1,1-difluoroethyl)pyridin-2-yl)-1,3,5-triazin-2-yl)amino)pyridin-2-yl)cyclopropanecarbonitrile], the figures for the IC50 in test [1], in test [2] and in test [3] were less than 100 nM, 100 to 1000 nM and less than 100 nM, respectively.

Take `CC(CO)CNc1nc(Nc2ccnc(C(F)(F)F)c2)nc(-c2cccc(C(F)(F)F)n2)n1` (stereo not drawn) [Compound 552, 2-Methyl-3-[4-(6-trifluoromethyl-pyridin-2-yl)-6-(2-trifluoromethyl-pyridin-4-ylamino)-[1,3,5]triazin-2-ylamino]-propan-1-ol]: the IC50 was less than 100 nM in test [1], 100 to 1000 nM in test [2] and 100 to 1000 nM in test [3].

Turning to `CC(C)Nc1nc(Nc2ccnc(C(F)(F)F)c2)nc(-c2cc(F)cc(Cl)c2)n1` [Compound 647, 6-(3-chloro-5-fluorophenyl)-N2-isopropyl-N4-(2-(trifluoromethyl)pyridin-4-yl)-1,3,5-triazine-2,4-diamine], the IC50 is less than 100 nM in test [1], 100 to 1000 nM in test [2] and 100 to 1000 nM in test [3].

For `Cn1cc(Nc2nc(Nc3ccnc(C(F)(F)F)c3)nc(-c3cccc(C(F)(F)F)n3)n2)cn1` [Compound 543, N-(1-Methyl-1H-pyrazol-4-yl)-6-(6-trifluoromethyl-pyridin-2-yl)-N′-(2-trifluoromethyl-pyridin-4-yl)-[1,3,5]triazine-2,4-diamine], the IC50 was less than 100 nM in test [1], 100 to 1000 nM in test [2] and 100 to 1000 nM in test [3].

`CC(C)Nc1nc(Nc2ccncc2)nc(-c2ccccc2Cl)n1` [Compound 226, 6-(2-chlorophenyl)-N^2-isopropyl-N^4-(pyridin-4-yl)-1,3,5-triazine-2,4-diamine]: the IC50 in test [1] is 100 to 1000 nM; in test [2], less than 100 nM; in test [3] it was 100 to 1000 nM.

Take `CC(C)Nc1nc(Nc2cccc(S(=O)(=O)NCC(F)(F)F)c2)nc(-c2cccc(C(F)(F)F)n2)n1` [Compound 519]: the IC50 in test [1] was less than 100 nM; in test [2], 100 to 1000 nM; in test [3], 100 to 1000 nM.

As to `FC(F)(F)c1cc(Nc2nc(NCC3CCOC3)nc(-c3cccc(C(F)(F)F)n3)n2)ccn1` (stereo not drawn) [Compound 547, N-(Tetrahydro-furan-3-ylmethyl)-N′-(2-trifluoromethyl-pyridin-4-yl)-6-(6-trifluoromethyl-pyridin-2-yl)-[1,3,5]triazine-2,4-diamine], the IC50 in test [1] is less than 100 nM; in test [2] it was 100 to 1000 nM; in test [3], less than 100 nM.

With `CC(F)(F)c1cccc(-c2nc(NCC3CC3)nc(Nc3cc(F)cc(F)c3)n2)n1` [Compound 584, N2-(cyclopropylmethyl)-6-(6-(1,1-difluoroethyl)pyridin-2-yl)-N4-(3,5-difluorophenyl)-1,3,5-triazine-2,4-diamine], the IC50 in test [1] was less than 100 nM; in test [2], 100 to 1000 nM; in test [3] it was less than 100 nM.

Regarding `CC(C)Nc1nc(Nc2cccc(F)c2)nc(-c2nc(C(F)(F)F)cs2)n1` [Compound 475, N-(3-Fluoro-phenyl)-N′-isopropyl-6-(4-trifluoromethyl-thiazol-2-yl)-[1,3,5]triazine-2,4-diamine], the IC50 in test [1], in test [2] and in test [3] was less than 100 nM throughout.

As to `CC(C)Nc1nc(Nc2ccc(F)nc2)nc(-c2ccccc2)n1` [Compound 196, N^2-(6-fluoropyridin-3-yl)-N^4-isopropyl-6-phenyl-1,3,5-triazine-2,4-diamine], the IC50 is less than 100 nM in test [1], less than 100 nM in test [2] and 100 to 1000 nM in test [3].

For the compound `Fc1cncc(Nc2nc(NC3COC3)nc(-c3ccccc3F)n2)c1` [Compound 625, 6-(2-Fluoro-phenyl)-N-(5-fluoro-pyridin-3-yl)-N′-oxetan-3-yl-[1,3,5]triazine-2,4-diamine], the IC50 in test [1] was less than 100 nM; in test [2] it was less than 100 nM; in test [3], 100 to 1000 nM.

As for `CC1CC1Nc1nc(Nc2ccncc2)nc(-c2ccccc2)n1` (stereo not drawn) [Compound 219, N^2-(2-methylcyclopropyl)-6-phenyl-N^4-(pyridin-4-yl)-1,3,5-triazine-2,4-diamine], the IC50 in test [1] is less than 100 nM; in test [2], less than 100 nM; in test [3], 100 to 1000 nM.

On to `CC1(CNc2nc(Nc3ccncc3)nc(-c3ccccc3)n2)CCCO1` (stereo not drawn) [Compound 221, N^2-((2-methyltetrahydrofuran-2-yl)methyl)-6-phenyl-N^4-(pyridin-4-yl)-1,3,5-triazine-2,4-diamine], for which the results for the IC50 in test [1], in test [2] and in test [3] were 100 to 1000 nM, 100 to 1000 nM and 1000 to 10000 nM, respectively.

For the compound `CC(C)(O)CNc1nc(Nc2ccnc(F)c2)nc(-c2cccc(C(F)(F)F)n2)n1` [Compound 500, 1-[4-(2-Fluoro-pyridin-4-ylamino)-6-(6-trifluoromethyl-pyridin-2-yl)-[1,3,5]triazin-2-ylamino]-2-methyl-propan-2-ol], the figures for the IC50 in test [1], in test [2] and in test [3] were less than 100 nM, 100 to 1000 nM and less than 100 nM, respectively.

Regarding `CC(C)Nc1nc(Nc2cc(F)cc(F)c2)nc(-c2nc(N)cc(C(F)(F)F)n2)n1` [Compound 481, 6-(4-amino-6-(trifluoromethyl)pyrimidin-2-yl)-N2-(3,5-difluorophenyl)-N4-isopropyl-1,3,5-triazine-2,4-diamine], the IC50 in test [1] was less than 100 nM; in test [2], 100 to 1000 nM; in test [3] it was less than 100 nM.

On to `Nc1cccc(-c2nc(NCC3CC3)nc(Nc3cc(F)cc(F)c3)n2)n1` [Compound 699, 6-(6-aminopyridin-2-yl)-N2-(cyclopropylmethyl)-N4-(3,5-difluorophenyl)-1,3,5-triazine-2,4-diamine], for which the IC50 in test [1] is less than 100 nM; in test [2], 100 to 1000 nM; in test [3], less than 100 nM.

`CC1CC1Nc1nc(Nc2ccnc(C(F)(F)F)c2)nc(-c2ccccn2)n1` (stereo not drawn) [Compound 516, N-(2-Methyl-cyclopropyl)-6-pyridin-2-yl-N′-(2-trifluoromethyl-pyridin-4-yl)-[1,3,5]triazine-2,4-diamine]: the results for the IC50 in test [1], in test [2] and in test [3] were less than 100 nM, 100 to 1000 nM and less than 100 nM, respectively.

As to `c1ccc(-c2nc(Nc3ccncc3)nc(NC3CCC3)n2)cc1` [Compound 188, N^2-cyclobutyl-6-phenyl-N^4-(pyridin-4-yl)-1,3,5-triazine-2,4-diamine], the results for the IC50 in test [1], in test [2] and in test [3] were less than 100 nM, less than 100 nM and 100 to 1000 nM, respectively.

Turning to `CS(=O)(=O)c1cccc(Nc2nc(NCC3CC3)nc(-c3cccc(C(F)(F)F)n3)n2)c1` [Compound 607, N2-(cyclopropylmethyl)-N4-(3-(methylsulfonyl)phenyl)-6-(6-(trifluoromethyl)pyridin-2-yl)-1,3,5-triazine-2,4-diamine], the IC50 was less than 100 nM in test [1], 100 to 1000 nM in test [2] and 100 to 1000 nM in test [3].
